Measurements from ChEMBL document CHEMBL1821562, “Amine-constrained pyridazinone histamine H₃ receptor antagonists” (Bioorg Med Chem Lett, 2011).
Values belong to the compound of their own block, whether it stands above or below them.

Legend:
[1] = Oral bioavailability in rat; format: ADME, organism-based; settings: in vivo
[2] = Ratio of drug level in brain to plasma in ip dosed rat; format: ADME, organism-based; settings: brain and plasma, read-out: BPR
[3] = Cmax in po dosed rat; format: ADME, organism-based; design: route oral; settings: in vivo
[4] = Drug uptake in ip dosed rat brain after 1 hr; format: ADME, organism-based; settings: read-out: Drug uptake
Rattus norvegicus [5] = test: AUC (0 to 6 hrs) in po dosed rat; format: ADME, organism-based, Plasma; design: time < 6 hr, route oral; settings: in vivo
[6] = Oral bioavailability in rat at 5 mg/kg; format: ADME, organism-based; settings: in vivo
[7] = Volume of distribution in rat at 1 mg/kg, iv; format: ADME, organism-based; design: dose 1 mg/kg, route intravenous; settings: in vivo
Histamine H3 receptor [8] = target: Histamine H3 receptor (Homo sapiens, UniProt Q9Y5N1); test: Displacement of [3H]-NAMH from human histamine H3 receptor
[9] = Drug uptake in rat brain at 10 mg/kg, ip after 1 hr; format: ADME, organism-based; design: dose 10 mg/kg, route intraperitoneal; settings: read-out: Drug uptake
Rattus norvegicus [10] = test: AUC (0 to 6 hrs) in rat at 5 mg/kg, po; format: ADME, organism-based, Plasma; design: time < 6 hr, dose 5 mg/kg, route oral; settings: in vivo
Histamine H3 receptor [11] = target: Histamine H3 receptor (Rattus norvegicus, UniProt Q9QYN8); test: Displacement of [3H]-NAMH from rat histamine H3 receptor
[12] = Tmax in rat at 5 mg/kg, po; format: ADME, organism-based; design: dose 5 mg/kg, route oral; settings: in vivo
[13] = Metabolic stability in human liver microsomes assessed as half life; format: ADME, Microsome
[14] = Metabolic stability in rat liver microsomes assessed as half life; format: ADME, Microsome
[15] = Ratio of drug level in brain to plasma in rat at 10 mg/kg, ip; format: ADME, organism-based; design: dose 10 mg/kg, route intraperitoneal; settings: brain and plasma, read-out: BPR
[16] = Metabolic stability in mouse liver microsomes assessed as half life; format: ADME, Microsome
[17] = Cmax in rat at 5 mg/kg, po; format: ADME, organism-based; design: dose 5 mg/kg, route oral; settings: in vivo
[18] = Metabolic stability in dog liver microsomes assessed as half life; format: ADME, Canis lupus familiaris, Microsome
[19] = Clearance in rat at 1 mg/kg, iv; format: ADME, organism-based; design: dose 1 mg/kg, route intravenous; settings: in vivo
[20] = Half life in rat at 1 mg/kg, iv; format: ADME, organism-based; design: dose 1 mg/kg, route intravenous; settings: in vivo
Cytochrome P450 2C9 = Cytochrome P450 2C9 (Homo sapiens, UniProt P11712); test: Inhibition of CYP2C9; format: ADME
Cytochrome P450 3A4 = Cytochrome P450 3A4 (Homo sapiens, UniProt P08684); test: Inhibition of CYP3A4; format: ADME
Cytochrome P450 2C19 = Cytochrome P450 2C19 (Homo sapiens, UniProt P33261); test: Inhibition of CYP2C19; format: ADME
Cytochrome P450 1A2 = target: T1, Cytochrome P450 1A2 (Homo sapiens, UniProt P05177); test: Inhibition of CYP1A2; format: ADME
T1 sequence (P05177 whole entry): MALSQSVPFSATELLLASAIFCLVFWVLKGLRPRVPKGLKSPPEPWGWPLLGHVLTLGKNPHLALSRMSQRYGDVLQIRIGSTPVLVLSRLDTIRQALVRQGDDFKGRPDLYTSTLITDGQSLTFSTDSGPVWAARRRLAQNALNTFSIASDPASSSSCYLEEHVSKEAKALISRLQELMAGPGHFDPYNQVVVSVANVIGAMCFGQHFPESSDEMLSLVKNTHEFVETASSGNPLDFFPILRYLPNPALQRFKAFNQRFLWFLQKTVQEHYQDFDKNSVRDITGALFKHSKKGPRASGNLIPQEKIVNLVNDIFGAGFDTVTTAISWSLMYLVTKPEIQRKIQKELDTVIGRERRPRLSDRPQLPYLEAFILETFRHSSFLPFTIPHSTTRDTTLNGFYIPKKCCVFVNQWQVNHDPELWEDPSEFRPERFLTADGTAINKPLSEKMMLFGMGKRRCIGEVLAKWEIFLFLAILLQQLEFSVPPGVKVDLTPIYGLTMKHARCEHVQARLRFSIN

Cytochrome P450 2D6 = Cytochrome P450 2D6 (Homo sapiens, UniProt P10635); test: Inhibition of CYP2D6; format: ADME
Cytochrome P450 2D6, sequence (P10635 whole entry): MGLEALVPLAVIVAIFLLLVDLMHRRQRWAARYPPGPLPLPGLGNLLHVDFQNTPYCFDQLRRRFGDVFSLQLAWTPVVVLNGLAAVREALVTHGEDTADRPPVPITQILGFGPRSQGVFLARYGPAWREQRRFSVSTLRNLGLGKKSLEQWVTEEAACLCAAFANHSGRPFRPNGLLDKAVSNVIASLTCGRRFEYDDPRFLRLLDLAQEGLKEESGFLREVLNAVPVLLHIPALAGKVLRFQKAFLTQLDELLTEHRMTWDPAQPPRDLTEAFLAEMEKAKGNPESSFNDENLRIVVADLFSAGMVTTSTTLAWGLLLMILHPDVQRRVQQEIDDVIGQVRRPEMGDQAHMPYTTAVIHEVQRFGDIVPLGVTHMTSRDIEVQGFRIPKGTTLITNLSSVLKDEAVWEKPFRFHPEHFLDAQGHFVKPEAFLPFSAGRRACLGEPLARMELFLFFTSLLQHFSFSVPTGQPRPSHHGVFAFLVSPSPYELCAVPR

Histamine H3 receptor (Homo sapiens, UniProt Q9Y5N1), sequence (Q9Y5N1 whole entry): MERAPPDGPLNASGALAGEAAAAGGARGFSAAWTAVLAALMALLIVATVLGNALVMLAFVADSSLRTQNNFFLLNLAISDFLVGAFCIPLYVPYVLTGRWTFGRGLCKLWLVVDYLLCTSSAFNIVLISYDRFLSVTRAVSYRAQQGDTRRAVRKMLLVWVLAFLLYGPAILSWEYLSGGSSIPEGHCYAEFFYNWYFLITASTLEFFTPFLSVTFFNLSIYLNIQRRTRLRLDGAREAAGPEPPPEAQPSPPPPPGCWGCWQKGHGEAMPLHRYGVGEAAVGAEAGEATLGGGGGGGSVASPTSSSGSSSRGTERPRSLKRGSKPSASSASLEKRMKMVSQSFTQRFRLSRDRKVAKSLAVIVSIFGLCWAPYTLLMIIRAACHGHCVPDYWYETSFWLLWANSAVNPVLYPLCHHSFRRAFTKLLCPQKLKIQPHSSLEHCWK
Histamine H3 receptor (Rattus norvegicus, UniProt Q9QYN8), sequence (Q9QYN8 whole entry): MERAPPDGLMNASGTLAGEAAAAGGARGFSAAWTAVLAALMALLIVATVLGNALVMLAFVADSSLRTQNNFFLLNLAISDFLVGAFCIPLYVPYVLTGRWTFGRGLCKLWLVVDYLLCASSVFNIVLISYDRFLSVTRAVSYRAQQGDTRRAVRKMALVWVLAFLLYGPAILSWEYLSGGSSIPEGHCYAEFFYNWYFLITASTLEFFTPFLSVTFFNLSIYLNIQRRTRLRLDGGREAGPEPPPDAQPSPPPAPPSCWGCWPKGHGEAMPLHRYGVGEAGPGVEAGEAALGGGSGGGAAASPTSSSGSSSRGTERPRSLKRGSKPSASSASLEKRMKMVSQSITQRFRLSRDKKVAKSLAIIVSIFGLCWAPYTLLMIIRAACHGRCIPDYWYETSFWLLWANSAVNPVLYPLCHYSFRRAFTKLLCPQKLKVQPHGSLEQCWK
Cytochrome P450 2C9, sequence (P11712 whole entry): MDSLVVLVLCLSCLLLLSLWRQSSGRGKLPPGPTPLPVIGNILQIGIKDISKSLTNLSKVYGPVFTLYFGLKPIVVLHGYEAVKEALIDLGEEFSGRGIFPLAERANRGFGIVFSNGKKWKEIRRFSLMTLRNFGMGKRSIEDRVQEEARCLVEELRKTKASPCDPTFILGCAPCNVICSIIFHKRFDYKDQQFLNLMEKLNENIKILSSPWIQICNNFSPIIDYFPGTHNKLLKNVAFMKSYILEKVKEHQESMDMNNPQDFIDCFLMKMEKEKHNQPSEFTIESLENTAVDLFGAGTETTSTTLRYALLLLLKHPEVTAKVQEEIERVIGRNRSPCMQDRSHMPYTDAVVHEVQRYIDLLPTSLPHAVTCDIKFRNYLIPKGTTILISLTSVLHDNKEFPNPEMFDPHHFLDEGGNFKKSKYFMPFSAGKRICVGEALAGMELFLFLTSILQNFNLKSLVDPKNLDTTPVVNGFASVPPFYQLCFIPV
Cytochrome P450 2C19, sequence (P33261 whole entry): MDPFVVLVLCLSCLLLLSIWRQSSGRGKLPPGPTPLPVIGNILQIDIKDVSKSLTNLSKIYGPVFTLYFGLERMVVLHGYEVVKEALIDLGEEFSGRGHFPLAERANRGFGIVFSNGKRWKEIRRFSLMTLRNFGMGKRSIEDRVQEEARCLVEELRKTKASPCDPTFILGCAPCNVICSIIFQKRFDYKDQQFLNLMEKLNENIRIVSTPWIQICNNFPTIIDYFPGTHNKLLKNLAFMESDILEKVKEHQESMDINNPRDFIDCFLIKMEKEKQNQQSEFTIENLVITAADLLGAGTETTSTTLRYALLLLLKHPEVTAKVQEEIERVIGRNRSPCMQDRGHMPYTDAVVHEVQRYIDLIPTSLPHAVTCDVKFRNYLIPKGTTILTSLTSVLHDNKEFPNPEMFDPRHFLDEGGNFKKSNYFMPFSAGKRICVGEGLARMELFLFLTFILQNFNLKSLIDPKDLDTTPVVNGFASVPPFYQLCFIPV
Cytochrome P450 3A4, sequence (P08684 whole entry): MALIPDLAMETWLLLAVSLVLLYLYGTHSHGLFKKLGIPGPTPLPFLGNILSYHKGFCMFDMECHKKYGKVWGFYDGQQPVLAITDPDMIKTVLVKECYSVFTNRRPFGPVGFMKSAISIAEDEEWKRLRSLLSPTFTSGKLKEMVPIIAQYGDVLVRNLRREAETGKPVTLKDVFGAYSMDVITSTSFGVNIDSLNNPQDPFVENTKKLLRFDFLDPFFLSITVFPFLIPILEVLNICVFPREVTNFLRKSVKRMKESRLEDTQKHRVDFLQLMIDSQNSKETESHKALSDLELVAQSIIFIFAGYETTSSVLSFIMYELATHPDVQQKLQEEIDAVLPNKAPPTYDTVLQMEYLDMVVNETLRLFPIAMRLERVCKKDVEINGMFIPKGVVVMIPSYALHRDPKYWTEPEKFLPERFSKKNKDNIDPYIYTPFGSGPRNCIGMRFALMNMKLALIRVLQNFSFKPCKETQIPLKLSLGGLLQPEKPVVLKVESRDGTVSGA

Compound: CNC(=O)c1ccc(Oc2ccc3c(c2)CCN(C2CCC2)CC3)nc1 [GSK189254]
bioavailability [1]: 51%
Kp [2]: 1.4
Cmax [3]: 435 ng/mL
concentration at 1 h [4]: 1660 ng/g
AUC (Rattus norvegicus [5]): 2600 ng·h/mL

Compound: C[C@@H]1CCCN1CCCOc1ccc(-c2ccc(=O)n(C)n2)cc1
bioavailability [6]: 28%
Vd [7]: 6.5 L/kg
Ki (Histamine H3 receptor [8]): 1 nM
concentration at 1 h [9]: 3440 ng/g
AUC (Rattus norvegicus [10]): 538 ng·h/mL
Ki (Histamine H3 receptor [11]): 6 nM
Tmax [12]: 60 min
half-life [13]: > 40 min
half-life [14]: > 40 min
Kp [15]: 3.9
half-life [16]: > 40 min
Cmax [17]: 123 ng/mL
half-life [18]: > 40 min

Compound: Cn1nc(-c2ccc(OC3CCN(C4CCCC4)CC3)cc2)ccc1=O
Ki (Histamine H3 receptor [8]): 3 nM
Ki (Histamine H3 receptor [11]): 6 nM

Compound: CN1CCCN(c2ccc(-c3ccc(=O)n(C)n3)cc2)CC1
Ki (Histamine H3 receptor [8]): > 500 nM
Ki (Histamine H3 receptor [11]): > 1000 nM

Compound: Cn1nc(-c2ccc(OC3CCN(C4CCC4)CC3)cc2)ccc1=O
Ki (Histamine H3 receptor [8]): 3 nM
Ki (Histamine H3 receptor [11]): 3 nM
half-life [16]: 35 min

Compound: CC(C)N1CCN(c2ccc(-c3ccc(=O)n(C)n3)cc2)CC1
Ki (Histamine H3 receptor [8]): 110 nM
Ki (Histamine H3 receptor [11]): 419 nM

Compound: Cn1nc(-c2ccc(N3CCN4CCC[C@H]4C3)cc2)ccc1=O
Ki (Histamine H3 receptor [8]): 308 nM
Ki (Histamine H3 receptor [11]): > 1000 nM

The next lines start with the values.

Ki (Histamine H3 receptor [8]): 134 nM
Ki (Histamine H3 receptor [11]): 186 nM
Compound: Cn1nc(-c2ccc(C(=O)N3CCN(C4CCCC4)CC3)cc2)ccc1=O

Ki (Histamine H3 receptor [8]): 93 nM
Ki (Histamine H3 receptor [11]): 255 nM
Compound: Cn1nc(-c2ccc(N3CCN(C4CCCC4)CC3)cc2)ccc1=O

Ki (Histamine H3 receptor [8]): 17 nM
Ki (Histamine H3 receptor [11]): 46 nM
Compound: O=C(c1ccc(-c2ccc(=O)[nH]n2)cc1)N1CCC[C@H]1CN1CCCC1

Ki (Histamine H3 receptor [8]): > 1000 nM
Ki (Histamine H3 receptor [11]): > 1000 nM
Compound: Cn1nc(-c2ccc(C(=O)N3CCN4CCC[C@H]4C3)cc2)ccc1=O

clearance [19]: 12 mL/min/kg
bioavailability [6]: 13%
Vd [7]: 1.1 L/kg
Ki (Histamine H3 receptor [8]): 16 nM
half-life [20]: 60 min
concentration at 1 h [9]: 529 ng/g
AUC (Rattus norvegicus [10]): 1020 ng·h/mL
Ki (Histamine H3 receptor [11]): 92 nM
half-life [13]: > 40 min
half-life [14]: > 40 min
Kp [15]: 0.7
half-life [16]: > 40 min
Cmax [17]: 180 ng/mL
half-life [18]: > 40 min
Compound: O=C(c1ccc(-c2ccc(=O)n(-c3ccc(F)cc3)n2)cc1)N1CCC[C@H]1CN1CCCC1

IC50 (Cytochrome P450 2C9): > 30000 nM
clearance [19]: 18 mL/min/kg
bioavailability [6]: 45%
Vd [7]: 2.5 L/kg
Ki (Histamine H3 receptor [8]): 10 nM
half-life [20]: 96 min
IC50 (Cytochrome P450 3A4): > 30000 nM
IC50 (Cytochrome P450 2C19): > 30000 nM
concentration at 1 h [9]: 454 ng/g
AUC (Rattus norvegicus [10]): 2180 ng·h/mL
IC50 (Cytochrome P450 1A2): > 30000 nM
Ki (Histamine H3 receptor [11]): 84 nM
half-life [13]: > 40 min
half-life [14]: > 40 min
Kp [15]: 0.37
half-life [16]: > 40 min
Cmax [17]: 412 ng/mL
half-life [18]: > 40 min
IC50 (Cytochrome P450 2D6): > 30000 nM
Compound: Cn1nc(-c2ccc(C(=O)N3CCC[C@H]3CN3CCCC3)cc2)ccc1=O

Ki (Histamine H3 receptor [8]): 167 nM
Ki (Histamine H3 receptor [11]): 185 nM
Compound: CC(C)N1CCN(C(=O)c2ccc(-c3ccc(=O)n(C)n3)cc2)CC1
